Like-named read-outs stand apart in the source and are kept apart here.
System: Escherichia coli ATCC 25922
Experiment: 50% growth inhibitory concentration (IC50) determination, Iso-Sensitest broth dilution
Type: cell-based
Settings: strain Escherichia coli ATCC 25922, 10-point broth dilution, optical density at 600 nm over 16 h, read-out: Escherichia coli growth inhibition IC50
In short: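 10-point twofold Iso-Sensitest broth dilution (e.g. 50 to 0.097 μM final) with DMSO stocks, incubated at 35±2° C. Growth followed by OD 600 nm every 20 min over 16 h; IC50 derived from growth inhibition during logarithmic phase.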

[1] = Escherichia coli, ATCC25922, 16 h

IC50 [1]	IC50	Compound
751 nM	–	O=C1COc2ccc(N3CC(CCNCC4Cc5ccncc5C4)OC3=O)nc2N1 (stereo not shown) [Example 418, 6-[5-[2-(6,7-Dihydro-5H-cyclopenta[c]pyridin-6-ylmethylamino)ethyl]-2-oxo-1,3-oxazolidin-3-yl]-4H-pyrido[3,2-b][1,4]oxazin-3-one]
167 nM	–	O=C1COc2ccc(N3CC(CCCNC4Cc5cccc(F)c5C4)OC3=O)nc2N1 (stereo not shown) [Example 8, 6-[5-[3-[(4-fluoro-2,3-dihydro-1H-inden-2-yl)amino]propyl]-2-oxo-1,3-oxazolidin-3-yl]-4H-pyrido[3,2-b][1,4]oxazin-3-one; formic acid]
< 97.7 nM	–	Cc1ncc(F)c2c1C[C@@H](CNCC[C@@H]1CN(c3cnc4c(n3)NC(=O)CO4)C(=O)O1)C2 [Example 427, 6-[(5R)-5-[2-[[(6R)-4-Fluoro-1-methyl-6,7-dihydro-5H-cyclopenta[c]pyridin-6-yl]methylamino]ethyl]-2-oxo-1,3-oxazolidin-3-yl]-4H-pyrazino[2,3-b][1,4]oxazin-3-one]
447 nM	–	O=C1COc2ccc(N3CC(CCCNC4Cc5ccc(Cl)cc5C4)OC3=O)nc2N1 (stereo not shown) [Example 10, 6-[5-[3-[(5-chloro-2,3-dihydro-1H-inden-2-yl)amino]propyl]-2-oxo-1,3-oxazolidin-3-yl]-4H-pyrido[3,2-b][1,4]oxazin-3-one; formic acid]
791 nM	–	Cc1c(OCC(=O)NC(C)C)ncc2c1CC(CNCCC1CN(c3ccc4c(n3)NC(=O)CO4)C(=O)O1)C2 (stereo not shown) [Example 224, N-isopropyl-2-((4-methyl-6-(((2-(2-oxo-3-(3-oxo-3,4-dihydro-2H-pyrido[3,2-b][1,4]oxazin-6-yl)oxazolidin-5-yl)ethyl)amino)methyl)-6,7-dihydro-5H-cyclopenta[c]pyridin-3-yl)oxy)acetamide]
99.5 nM	–	Cc1nc(OCCNC2CC2)c(C)c2c1CC(CNCCC1CN(c3ccc4c(n3)NC(=O)CO4)C(=O)O1)C2 (stereo not shown) [Example 189, 6-[5-[2-[[3-[2-(cyclopropylamino)ethoxy]-1,4-dimethyl-6,7-dihydro-5H-cyclopenta[c]pyridin-6-yl]methylamino]ethyl]-2-oxo-1,3-oxazolidin-3-yl]-4H-pyrido[3,2-b][1,4]oxazin-3-one]
278 nM	–	NC1(CNCCC2CN(c3ccc4c(n3)NC(=O)CO4)C(=O)O2)Cc2cccc(Cl)c2C1 (stereo not shown) [Example 240, 6-[5-[2-[(2-Amino-4-chloro-1,3-dihydroinden-2-yl)methylamino]ethyl]-2-oxo-1,3-oxazolidin-3-yl]-4H-pyrido[3,2-b][1,4]oxazin-3-one; formic acid]
188 nM	–	N#Cc1cc(OC2CCNC2)cc2c1CC(CNCCC1CN(c3ccc4c(n3)NC(=O)CO4)C(=O)O1)C2 (stereo not shown) [Example 254, 2-[[2-[2-Oxo-3-(3-oxo-4H-pyrido[3,2-b][1,4]oxazin-6-yl)-1,3-oxazolidin-5-yl]ethylamino]methyl]-6-pyrrolidin-3-yloxy-2,3-dihydro-1H-indene-4-carbonitrile; formic acid]
–	158 nM	NC(=O)COc1cc(F)c2c(c1)CC(CNCC[C@@H]1CN(c3cnc4c(n3)NC(=O)CO4)C(=O)O1)C2 (single isomer, unassigned; isomer b) [Example 382]
< 97.7 nM	–	O=C1COc2ncc(N3CC(CCNCC4Cc5cc(O)cc(F)c5C4)OC3=O)nc2N1 (stereo not shown) [Example 317, 6-[5-[2-[(4-Fluoro-6-hydroxy-2,3-dihydro-1H-inden-2-yl)methylamino]ethyl]-2-oxo-1,3-oxazolidin-3-yl]-4H-pyrazino[2,3-b][1,4]oxazin-3-one]
< 97.7 nM	–	Cc1ncc(F)c2c1C[C@H](CNCC[C@H]1CN(c3cnc4c(n3)NC(=O)CO4)C(=O)O1)C2 [Example 429]
8530 nM	–	O=C1COc2ccc(N3CC(CNC4Cc5cccc(Cl)c5C4)OC3=O)nc2N1 (stereo not shown) [Example 22, 6-[5-[[(4-chloro-2,3-dihydro-1H-inden-2-yl)amino]methyl]-2-oxo-1,3-oxazolidin-3-yl]-4H-pyrido[3,2-b][1,4]oxazin-3-one]
184 nM	–	O=C1COc2ncc(N3CC(CCNCC4Cc5cc(OCCn6ccnc6)cc(F)c5C4)OC3=O)nc2N1 (stereo not shown) [Example 332, 6-[5-[2-[[4-fluoro-6-(2-imidazol-1-ylethoxy)-2,3-dihydro-1H-inden-2-yl]methylamino]ethyl]-2-oxo-1,3-oxazolidin-3-yl]-4H-pyrazino[2,3-b][1,4]oxazin-3-one]
–	195 nM	Cc1nccc2c1CC(NCCCc1cn(-c3cnc4c(n3)NC(=O)CO4)c(=O)o1)C2 (single isomer, unassigned; enantiomer b) [Example 370, 6-[5-[3-[(1-Methyl-6,7-dihydro-5H-cyclopenta[c]pyridin-6-yl)amino]propyl]-2-oxo-1,3-oxazol-3-yl]-4H-pyrazino[2,3-b][1,4]oxazin-3-one; formic acid, Enantiomer B]
< 97.7 nM	–	Cc1nc(Cl)c(F)c2c1CC(CNCCC1CN(c3cnc4c(n3)NC(=O)CO4)C(=O)O1)C2 (stereo not shown) [Example 398, 6-[5-[2-[(3-chloro-4-fluoro-1-methyl-6,7-dihydro-5H-cyclopenta[c]pyridin-6-yl)methylamino]ethyl]-2-oxo-1,3-oxazolidin-3-yl]-4H-pyrazino[2,3-b][1,4]oxazin-3-one]
< 97.7 nM	–	Cc1ncc(F)c2c1CC(CN(C)CCC1CN(c3cnc4c(n3)NC(=O)CO4)C(=O)O1)C2 (stereo not shown) [Example 376, 6-[5-[2-[(4-Fluoro-1-methyl-6,7-dihydro-5H-cyclopenta[c]pyridin-6-yl)methyl-methylamino]ethyl]-2-oxo-1,3-oxazolidin-3-yl]-4H-pyrazino[2,3-b][1,4]oxazin-3-one]
489 nM	–	CNC(=O)COc1nc(C)c2c(c1C)CC(CNCCC1CN(c3cnc4c(n3)NC(=O)CO4)C(=O)O1)C2 (stereo not shown) [Example 111, 2-[[1,4-dimethyl-6-[[2-[2-oxo-3-(3-oxo-4H-pyrazino[2,3-b][1,4]oxazin-6-yl)-1,3-oxazolidin-5-yl]ethylamino]methyl]-6,7-dihydro-5H-cyclopenta[c]pyridin-3-yl]oxy]-N-methylacetamide]
< 97.7 nM	–	CC(N)COc1cc(F)c2c(c1)CC(CCN1CC3(C1)CN(c1cnc4c(n1)NC(=O)CO4)C(=O)O3)C2 (stereo not shown) [Example 327, 6-[2-[2-[6-(2-aminopropoxy)-4-fluoro-2,3-dihydro-1H-inden-2-yl]ethyl]-6-oxo-5-oxa-2,7-diazaspiro[3.4]octan-7-yl]-4H-pyrazino[2,3-b][1,4]oxazin-3-one]
1010 nM	–	NC1c2ccnc(Cl)c2CC1CNCCC1CN(c2ccc3c(n2)NC(=O)CO3)C(=O)O1 (racemic) [Example 146, 6-[2-oxo-5-[2-[[rac-5,6-cis-5-amino-1-chloro-6,7-dihydro-5H-cyclopenta[c]pyridin-6-yl]methylamino]ethyl]-1,3-oxazolidin-3-yl]-4H-pyrido[3,2-b][1,4]oxazin-3-one; formic acid]
163 nM	–	Cc1ncc(F)c2c1CC(N(C)CCCc1cn(-c3cnc4c(n3)NC(=O)CO4)c(=O)o1)C2 (stereo not shown) [Example 303, 6-[5-[3-[(4-Fluoro-1-methyl-6,7-dihydro-5H-cyclopenta[c]pyridin-6-yl)-methylamino]propyl]-2-oxo-1,3-oxazol-3-yl]-4H-pyrazino[2,3-b][1,4]oxazin-3-one; formic acid]
232 nM	–	N#Cc1nccc2c1CC(NCCCC1CN(c3ccc4c(n3)NC(=O)CO4)C(=O)O1)C2 (stereo not shown) [Example 95, 6-[3-[2-oxo-3-(3-oxo-4H-pyrido[3,2-b][1,4]oxazin-6-yl)-1,3-oxazolidin-5-yl]propylamino]-6,7-dihydro-5H-cyclopenta[c]pyridine-1-carbonitrile]
< 97.7 nM	–	O=C1COc2ccc(N3CC(CCNCC4Cc5cccc(Cl)c5C4)OC3=O)nc2N1 (stereo not shown) [Example 1, 6-[5-[2-[(4-Chloro-2,3-dihydro-1H-inden-2-yl)methylamino]ethyl]-2-oxo-1,3-oxazolidin-3-yl]-4H-pyrido[3,2-b][1,4]oxazin-3-one; formic acid]
98.1 nM	–	N#Cc1c(OCCN)ccc2c1CC(CNCCC1CN(c3ccc4c(n3)NC(=O)CO4)C(=O)O1)C2 (stereo not shown) [Example 128, 5-(2-aminoethoxy)-2-[[2-[2-oxo-3-(3-oxo-4H-pyrido[3,2-b][1,4]oxazin-6-yl)-1,3-oxazolidin-5-yl]ethylamino]methyl]-2,3-dihydro-1H-indene-4-carbonitrile; formic acid]
< 97.7 nM	–	NC(=O)COc1cc(F)c2c(c1)CC(CNCC[C@H]1CN(c3cnc4c(n3)NC(=O)CO4)C(=O)O1)C2 (single isomer, unassigned; isomer a) [Example 379]
< 97.7 nM	–	O=C1COc2ncc(N3CC(CCNCC4Cc5ncc(F)c(Cl)c5C4)OC3=O)nc2N1 (stereo not shown) [Example 319, 6-[5-[2-[(4-chloro-3-fluoro-6,7-dihydro-5H-cyclopenta[b]pyridin-6-yl)methylamino]ethyl]-2-oxo-1,3-oxazolidin-3-yl]-4H-pyrazino[2,3-b][1,4]oxazin-3-one; formic acid]
106 nM	–	CNC(=O)COc1ccc2c(c1C#N)CC(CNCCC1CN(c3ccc4c(n3)NC(=O)CO4)C(=O)O1)C2 (stereo not shown) [Example 48, 2-[[4-cyano-2-[[2-[2-oxo-3-(3-oxo-4H-pyrido[3,2-b][1,4]oxazin-6-yl)-1,3-oxazolidin-5-yl]ethylamino]methyl]-2,3-dihydro-1H-inden-5-yl]oxy]-N-methylacetamide]
< 97.7 nM	–	NC1(COc2cc(F)c3c(c2)CC(CNCCC2CN(c4cnc5c(n4)NC(=O)CO5)C(=O)O2)C3)CC1 (stereo not shown) [Example 161, 6-[5-[2-[[6-[(1-aminocyclopropyl)methoxy]-4-fluoro-2,3-dihydro-1H-inden-2-yl]methylamino]ethyl]-2-oxo-1,3-oxazolidin-3-yl]-4H-pyrazino[2,3-b][1,4]oxazin-3-one]
< 97.7 nM	–	COCC(N)COc1cc(F)c2c(c1)CC(CNCCC1CN(c3ccc4c(n3)NC(=O)CO4)C(=O)O1)C2 (stereo not shown) [Example 248, 6-[5-[2-[[6-(2-amino-3-methoxypropoxy)-4-fluoro-2,3-dihydro-1H-inden-2-yl]methylamino]ethyl]-2-oxo-1,3-oxazolidin-3-yl]-4H-pyrido[3,2-b][1,4]oxazin-3-one]

Source: patent publication US20230167127A1, “COMPOUNDS AND THEIR USE IN THE TREATMENT OF BACTERIAL INFECTION” (Hoffmann-La Roche Inc., priority 2020, published 2023)
